Data published in ChEMBL document CHEMBL1156364, “Chondropsin D, a new 37-membered-ring macrolide lactam from the marine sponge Chondropsis species” (J Nat Prod, 2001).
≈ marks a conversion by molar mass, not a printed value.

Tests used:
[1] = Cytotoxicity against human LOX cells after 2 days by XTT assay; type: functional, cell-based; conditions: 48 h
MOLT-4 = experiment: Cytotoxicity against human MOLT4 cells after 2 days by XTT assay; type: functional, cell-based; conditions: MOLT-4, 48 h

With `COC(=O)C(C)(C)C(O)C(C)C(=O)C(C)(C)/C=C/C(=O)NC(C(O)C(C)C)C(O)C(C)/C=C(\C)C(O)C(C)CCC(O)C(C)C(=O)NC1C(C)OC(=O)C(C(O)C(=O)O)NC(=O)/C=C/C=C/CC/C=C/C=C/C[C@@H]2C[C@@H](C)C[C@@H](CC(O)C(C)C(O)/C(C)=C/C(C)C(O)/C(C)=C/CC(OC(=O)CC(O)C(=O)O)C(C)C1O)O2` (some centres not stated) [CHONDROPSIN D] the IC50 [1] was 0.01 µg/mL (≈ 0.00629 µM) and the IC50 (MOLT-4) was 0.25 µg/mL (≈ 0.157 µM).
